Data from patent US9150505B2, “Prophylactic or therapeutic agent for diabetes or obesity” (AJINOMOTO CO., INC., priority 2010, dated 2015).

What was measured:
NCI-H716 cells [1] = assay: Promotion of GLP-1 secretion in NCI-H716 cells; type: cell-based, human; conditions: 10 mM, 30 minutes at 37° C., buffer assumed to be 1.0
Experimental: Human appendix-derived cell line NCI-H716 (ATCC No CCL-251) was cultured in a 10% FBS-containing DMEM/HamF-12 medium at 37° C. in the presence of 5% CO2. NCI-H716 cells were seeded in a poly-D-lysine-coated 96-well plate at 100,000 cells/well and cultured for two days. Prior to sample addition, wells were washed with Hepes buffer (20 mM Hepes, 146 mM NaCl, 5 mM KCl, 1.5 mM CaCl2, 1 mM MgSO4, 5.5 mM D-glucose, 0.2% BSA, pH 7.4). Fifty μl of a sample solution dissolved in the same buffer was added and incubated at 37° C. for 30 minutes. The above-described compounds in Example 6 (Compound 1) (10 mM), Example 48 (Compound 2) (5 mM) and Example 14 (Compound 3) (2 mM) were used as the samples. In addition, a Hepes buffer was used as a control. After collecting the supernatant, the cells were precipitated by centrifugation (5,000×g, 1 min.) to collect the supernatant thereof. GLP-1 level in the supernatant was determined as described below according to a quantitative method for GLP-1 that uses GLP-1 receptor gene expression cells.
According to a routine method (Lopez de Maturana R, Willshaw A, Kuntzsch A, Rudolph R, Donnelly D. J Biol Chem. 2003 Mar. 21; 278 (12):10195-200), human GLP-1 receptor gene (Nucleotide sequence 1) was integrated into pcDNA3.1 to prepare human GLP-1 receptor gene expression plasmid hGLP-1R/pcDNA3.1. Moreover, chimeric gene (Nucleotide sequence 2) of human Gα15 gene and human gustducin gene was integrated into pcDNA3.1 to prepare G protein expression plasmid Gα15-gust/pcDNA3.1. […] After 24 hours of cultivation in a CO2 incubator, changes in the fluorescence intensity were determined starting immediately after sample addition according to the Ca^2+ fluorescence indicator FLIPR Calcium 4 Assay Kit protocol (Molecular Devices) using FlexStation (Molecular Devices). Concentration dependency of human GLP-1 (7-36 Amide; Peptide Institute) with respect to the changes in the fluorescence intensity was determined and used as a standard curve for quantitating the sample. […]

NCI-H716 cells [2] = assay: Promotion of CCK secretion in NCI-H716 cells; type: cell-based, human
Experimental: Human appendix-derived cell line NCI-H716 (ATCC No CCL-251) was cultured in a 10% FBS-containing DMEM/HamF-12 medium at 37° C. in the presence of 5% CO2. NCI-H716 cells were seeded in a poly-D-lysine-coated 24-well plate at 600,000 cells/well and cultured for two days. Prior to sample addition, wells were washed with Hepes buffer (20 mM Hepes, 146 mM NaCl, 5 mM KCl, 1.5 mM CaCl2, 1 mM MgSO4, 5.5 mM D-glucose, 0.02% BSA, pH 7.4). 300 μl of a sample solution dissolved in the same buffer was added and incubated at 37° C. for 30 minutes. Compound 1 in Example 6 (2 mM) and Compound 2 in Example 48 (1 mM) were used as the samples. In addition, a Hepes buffer was used as a control. After collecting the supernatant, the cells were precipitated by centrifugation (5,000×g, 1 min.) to collect the supernatant thereof, which was lyophilized in Speed Vac Concentrator (SAVANT) and dissolved by addition of 60 μl of water. CCK level in the solution was determined using Enzyme immuno assay kit (EK-069-04; PHENOIX PHARMACEUTICALS).

SMILES: N[C@@H](CNC(=O)Nc1cc(Cl)cc(S(=O)(=O)O)c1O)C(=O)O [Example 6, (2S)-2-amino-3-{[(5-chloro-2-hydroxy-3-sulfophenyl)carbamoyl]amino}propanoic acid]
- Relative secretion volumes (GLP-1) (NCI-H716 cells [1]): 2.16
- Relative secretion volumes (CCK) (NCI-H716 cells [2]; 2 mM, 30 minutes at 37° C., buffer assumed to be 1.0): 4.89
- effect of promoting CCK secretion (NCI-H716 cells [2]; result in words): confirmed to have an effect of promoting CCK secretion
